Assay results as given in patent US20190160049A1, “2-OXO-1,2-DIHYDROPYRIDINE-3-CARBOXAMIDE COMPOUNDS AND THEIR USE AS DUAL INHIBITORS OF PDK1/AURA” (INTERNATIONAL SOCIETY FOR DRUG DEVELOPMENT S.R.L., priority 2016, published 2019).

Key:
Format in all cases: cell-based
U87MG cells = experiment: U87MG cell proliferation, MTS assay; details: 72 h
Procedure: FIG. 1 illustrates the effects of SA16 on U87MG cell proliferation of example 3 (a). U87MG cells were treated in complete medium with different concentrations of SA16 (1 nM-100 μM) for 72 h. At the end of treatment, cell proliferation was measured using the MTS assay. The data are expressed as a percentage with respect to that of untreated cells (control), which was set to 100%, and are the mean values±SEM of three independent experiments, each performed in duplicate. The significance of the differences was determined with a one-way ANOVA with Bonferroni post-test: * p<0.05, ** p<0.01, *** p<0.001 vs. control cells;
FIG. 2 illustrates the combined inhibition of PDK1 and Aurora A on U87MG cell proliferation of example 3a. U87MG cells were treated in complete medium with different concentrations of MP7, in the presence or absence of Alisertib, for 72 h. At the end of treatment, cell proliferation was measured using the MTS assay. The data are expressed as a percentage with respect to that of untreated cells (control), which was set to 100%, and are the mean values±SEM of three independent experiments, each performed in duplicate. The significance of the differences was determined with a one-way ANOVA with Bonferroni post-test: * p<0.05, *** p<0.001 vs. control cells; ## p<0.01, ### p<0.001 vs. cells treated with MP7 alone; §§ p<0.01, § § § p<0.001 vs. cells treated with Alisertib alone;
To examine the effects of SA16 on U87MG cell growth/survival, U87MG cells were incubated with different concentrations of the compound SA16 (1 nM-10 μM) for 72 h.
In parallel experiments, U87MG proliferation was assessed in the presence of a well-known PDK1 inhibitor MP7, alone or in combination with the Aurora A inhibitor, Alisertib.

[1] = system: cancer stem cell (CSC) neurospheres obtained from U87MG cells; experiment: CSC (GBM stem cell) proliferation, MTS assay; details: seven days
Procedure: FIG. 3 illustrates the effects of SA16 on CSC proliferation of example 3b. CSCs were treated in complete neurosphere medium with different concentrations of SA16 (1 nM-100 μM) for seven days. At the end of treatment, cell proliferation was measured using the MTS assay. The data are expressed as a percentage with respect to that of untreated cells (control), which was set to 100%, and are the mean values±SEM of three independent experiments, each performed in duplicate. IC50 value after seven days of treatment were calculated from sigmoid dose-response curve;
FIG. 4 illustrates combined inhibition of PDK1 and Aurora A on CSCs proliferation of example 3b. CSCs were treated in complete medium with different concentrations of MP7, in the presence or absence of Alisertib, for seven days. At the end of treatment, cell proliferation was measured using the MTS assay.
The data are expressed as a percentage with respect to that of untreated cells (control), which was set to 100%, and are the mean values±SEM of three independent experiments, each performed in duplicate. The significance of the differences was determined with a one-way ANOVA with Bonferroni post-test: * p<0.05, *** p<0.001 vs. control cells; ## p<0.01, ### p<0.001 vs. cells treated with MP7 alone; §§ p<0.01, § § § p<0.001 vs. cells treated with Alisertib alone;
The inventors also examined the effects of SA16 compound on cancer stem cell (CSC) neurospheres obtained from U87MG cells.

CSC neurospheres = experiment: Sphere-derived cell morphology (neurosphere area, outgrowth of cellular processes); details: seven days, SA16 10 nM, 1 μM, 10 μM
Procedure: FIG. 5 illustrates the effects of SA16 on sphere-derived cell morphology of Example 3c. CSCs were treated for seven days with complete NSC medium containing DMSO (control), or SA16 (10 nM, 1 μM, 10 μM) (A) Representative cell micrographs of control and SA16 (10 μM) after seven days of treatment are shown. The area of the culture plates occupied by the spheres (B) and the length of cellular processes (C) were scored after seven days of treatment. The counts represent the mean values±SEM of two independent experiments. The significance of differences was determined with a one-way ANOVA with Bonferroni post-test: * p<0.05, ** p<0.01, *** p<0.001 vs. control cells.
FIG. 7 illustrates the effects of MP7, Alisertib and of their combined treatment on sphere-derived cell morphology of example 3c. CSCs were treated for seven days with complete NSC medium containing DMSO (control), MP7 and/or alisertib (A) Representative cell micrographs after seven days of treatment are shown. The area of the culture plates occupied by the spheres (B) and the length of cellular processes (C) were scored after seven days of treatment. The counts represent the mean values±SEM of two independent experiments. The significance of differences was determined with a one-way ANOVA with Bonferroni post-test: * p<0.05, *** p<0.001 vs. control cells; ## p<0.01 vs. cells treated with MP7 alone; § p<0.05 vs. cells treated with Alisertib alone.
The effects of SA16 on morphology of neurospheres were evaluated by quantifying the area occupied by the cells in culture plates, as well as the outgrowth of cellular processes.
The inventors then evaluated the effects of MP7, Alisertib and of their combination on CSC differentiation. The cells were incubated with […] MP7, alone or in combination with 1.5 μM Alisertib for seven days.

## COc1cc(Nc2ncc3c(n2)-c2ccc(Cl)cc2C(c2c(F)cccc2OC)=NC3)ccc1C(=O)O [Alisertib, 4-{[9-Chloro-7-(2-fluoro-6-methoxyphenyl)-5H-pyrimido[5,4-d][2]benzazepin-2-yl]amino}-2-methoxybenzoic acid]
U87MG cells
  effect on U87MG cell proliferation (in words): slightly reduced U87MG cell proliferation
[1]
  effect on CSC proliferation (in words): anti-proliferative effects on CSCs, in a concentration-dependent manner
CSC neurospheres; 1.5 μM Alisertib
  outgrowth of cellular processes: modest but significant outgrowth of cellular processes
CSC neurospheres; 2.5 PIM MP7, 1.5 μM Alisertib
  area occupied by the neurospheres: reduction in the area occupied by the neurospheres
